Experiment [1] deals with Pyricularia oryzae (rice blast). Description: whole plant or invertebrate. To be noted: foliar, read-out: RICE BLAST control rating. It is filed as in vivo.
Experiment [2] has as its system southern armyworm (Spodopetra eridania Cramer). Description: Mite/insect screen, Southern armyworm. Particulars: Spodoptera eridania, sprayed leaves, read-out: SAW results (percent mortality); for mortality at 200 ppm: rate 200 ppm; for mortality at 400 ppm: rate 400 ppm. It counts as in vivo. In short, it runs like this:
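Southern armyworm larvae placed in Petri dishes with two excised squash leaves that had been sprayed to runoff (10 psi) with emulsified compound and air-dried for 1 h. Mortality in percent recorded after a standard exposure period; formulation acetone/alcohol plus Toximul R and S, water-diluted.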

Experiment [3] has as its system Southern corn rootworm (Diabrotica undecimpuctata howardi Barber). The experiment is described as follows: Mite/insect screen, corn rootworm. Particulars: Diabrotica, soil, read-out: CRW results (percent mortality); for mortality at 12 ppm: CRW rate 12.00 ppm; for mortality at 24 ppm: CRW rate 24.00 ppm. It is filed as in vivo. In a few lines:
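Five 2-3 instar larvae per cup were placed on sandy soil (15 g, with presoaked corn seed) treated 6–12 h earlier with 1 mL test solution, an emulsified acetone/alcohol formulation diluted in water. Cups kept at 23° C; mortality and phytotoxicity assessed as percent after standard exposures.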

For experiment [4], the system named is Botrytis cinerea (gray mold). Description: Plant pathology screen (Test 1), gray mold on grape berries. To be noted: read-out: GRAY MOLD control rating.
Experiment [5] concerns Puccinia recondita tritici (leaf rust). Description: Plant pathology screen (Test 1), leaf rust on wheat. Particulars: in Triticum aestivum, foliar, read-out: LEAF RUST control rating.
For experiment [6], the system named is Pseudoperonospora cubensis (downy mildew). Description: Plant pathology screen (Test 1), downy mildew on squash. To be noted: foliar, read-out: DOWN MDEW control rating.
Experiment [7] concerns Twospotted spider mites (Tetranychus urticae Koch). Description: Mite/insect screen, twospotted spider mites. It counts as in vivo. Particulars: Tetranychus urticae, sprayed leaves, read-out: SM results (percent mortality); for mortality at 200 ppm: rate 200 ppm; for mortality at 400 ppm: rate 400 ppm. In a few lines: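 Percent mortality, along with phytotoxicity, was read after standard exposure periods. Beforehand, mites established on both surfaces of squash cotyledons received a runoff spray (10 psi) of water-diluted compound formulated in acetone/alcohol with sulfonate/nonionic emulsifiers.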

For experiment [8], the system named is Erysiphe graminis tritici (powdery mildew). The experiment is described as follows: Plant pathology screen (Test 1), powdery mildew on wheat. Particulars: Blumeria graminis, in Triticum aestivum, foliar, read-out: POWD MDEW control rating.
Experimental: The test compounds were formulated for application by dissolving 50 mg of the compound into 1.25 ml of solvent. The solvent was prepared by mixing 50 ml of "Tween 20" (polyoxyethylene (20) sorbitan monolaurate emulsifier) with 475 ml of acetone and 475 ml of ethanol. The solvent/compound solution was diluted to 125 ml with deionized water. The resulting formulation contains 400 ppm test chemical. Lower concentrations were obtained by serial dilution with the solvent-surfactant mixture.
The formulated test compounds were applied by foliar spray.
The formulated technical compounds were sprayed on all foliar surfaces of the host plants (or cut berry) to past run-off. Single pots of each host plant were placed on raised, revolving pedestals in a fume hood. Test solutions were sprayed on all foliar surfaces. All treatments were allowed to dry and the plants were inoculated with the appropriate pathogens within 2-4 hours.
The effectiveness of test compounds in controlling disease was rated using the following scale.
Experiment [9] deals with melon aphids (Aphis gossvpii Glover). Description: Mite/insect screen, melon aphids. Particulars: Aphis, sprayed leaves, read-out: MA results (percent mortality); for mortality at 200 ppm: rate 200 ppm; for mortality at 400 ppm: rate 400 ppm. It counts as in vivo. In short, it runs like this: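 Percent mortality of melon aphids was assessed after standard exposure periods. Infested squash cotyledons had been sprayed on both leaf surfaces until runoff at 10 psi with water-diluted test solutions. Compounds were formulated in acetone/alcohol (50:50) containing emulsifiers.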

The structures appear in SMILES notation.

In the case of `Cc1oc2ncnc(Oc3ccc(F)cc3)c2c1C` [Example 49, 5,6-dimethyl-4-(4-fluorophenoxy)furo[2,3-d]pyrimidine], the pest or weed control at 400 µg/mL lay in the range of 0 to 19% in experiment [1]; 0 to 19% in [4]; 90 to 100% in experiment [5]; 0 to 19% in experiment [6]; 90 to 100% in experiment [8]. Also, the mortality at 200 ppm was found to be 80% in [2], 0% in experiment [7] and 0% in [9]. Further, the mortality at 400 ppm in [2], in experiment [7] and in [9] was 0% each time. Besides, the mortality at 12 ppm in experiment [3] is 0%. Further, in [3], the mortality at 24 ppm was 0%.
For `Cc1oc2ncnc(OCCc3ccc(C(C)(C)C)cc3)c2c1C` [Example 50, 4-[2-[4-(t-butyl)phenyl]ethoxy]-5,6-dimethylfuro[2,3-d]pyrimidine], the pest or weed control at 400 µg/mL in experiment [1] is 20 to 89%; in [4], 0 to 19%; in experiment [5] it was 20 to 89%; in [6] it was 20 to 89%; in experiment [8], 20 to 89%. The mortality at 200 ppm in experiment [2], in experiment [7] and in [9] was 0% each time. Besides, the mortality at 400 ppm in experiment [2] came to 0%; in experiment [7], 100%; in experiment [9], 100%. In addition, the mortality at 12 ppm in experiment [3] came to 0%. For the same molecule, the mortality at 24 ppm in experiment [3] amounted to 0%.
On to `Cc1oc2ncnc(OCCc3ccc(-c4ccccc4)cc3)c2c1C` [Example 51, 4-[2-[4-biphenylyl]ethoxy]-5,6-dimethylfuro[2,3-d]pyrimidine], for which the pest or weed control at 400 µg/mL in [1] lay within 0 to 19%; in experiment [4], 0 to 19%; in experiment [5], 0 to 19%; in [6], 90 to 100%; in [8], 0 to 19%. The mortality at 200 ppm in experiment [2] was 0%; in experiment [7] it was 100%; in experiment [9], 90%. The figures for the mortality at 400 ppm in experiment [2], in experiment [7] and in [9] were 0%, 80% and 80%, respectively. In [3], the mortality at 12 ppm was determined as 0%. Further, in experiment [3], the mortality at 24 ppm was 0%.
On to `COc1ccc(CCOc2ncnc3oc(C)c(C)c23)cc1` [Example 52, 4-[2-(4-methoxyphenyl)ethoxy]-5,6-dimethylfuro[2,3-d]pyrimidine], for which the pest or weed control at 400 µg/mL in experiment [1] lay within 90 to 100%; in experiment [4] it was 0 to 19%; in experiment [5] it was 90 to 100%; in experiment [6] it was 90 to 100%; in [8], 90 to 100%. Besides, the mortality at 200 ppm in [2] was 0%; in [7] it was 0%; in experiment [9], 80%. For the same molecule, the mortality at 400 ppm in experiment [2] came out at 0%; in [7] it was 0%; in experiment [9], 100%. The mortality at 12 ppm in [3] was determined as 0%. In [3], the mortality at 24 ppm was 0%.
For `Cc1oc2ncnc(OCCc3ccc(Cl)cc3)c2c1C` [Example 53, 4-[2-(4-chlorophenyl)ethoxy]-5,6-dimethylfuro[2,3-d]pyrimidine], the pest or weed control at 400 µg/mL is 20 to 89% in experiment [1]; 0 to 19% in experiment [4]; 90 to 100% in [5]; 0 to 19% in experiment [6]; 20 to 89% in experiment [8]. The mortality at 200 ppm in experiment [2], in experiment [7] and in [9] was 0% throughout. Besides, the mortality at 400 ppm in experiment [2] stood at 0%; in [7] it was 30%; in [9], 60%. In addition, in experiment [3], the mortality at 12 ppm was found to be 0%. Besides, in experiment [3], the mortality at 24 ppm came to 0%.

The values above are taken from US5486516A, “Furopyrimidine derivatives” (DowElanco, priority 1993, dated 1996).
